# From patent publication US20060128015A1, “Small hepatocyte-rich colonies, process for preparing the colonies, process for maturating the colonies into liver tissue and method of estimating effects of drug by using matured small hepatocyte-rich colonies” (priority 2001, published 2006)
# Where two headings read alike, the source gives them in different places.
# What was measured:
# [1] = tested on: CYP4A1; assay: CYP4A1 induction capacity in matured small hepatocyte-rich colonies (Western blot); type: cell-based, rat; conditions: 24 hours, matured hepatocytes = 100%, control (0.5% DMSO) 74.1
# [2] = tested on: CYP2E1; conditions: 24 hours after addition, matured hepatocytes = 100%, 0 mM gave 74.1
# Method: (§1) About 200 to 250/cm^2 of the small hepatocyte colonies prepared in Example 2 were placed on a culture dish (diameter: 60 mm).
# (§2) After the culture in a culture medium (1) (DMEM, 10% FBS, 10 mM nicotinamide, 1 mM ascorbic acid 2-phosphate, 10 ng/ml EGF, 10^−7 M dexamethasone, 0.5 μg/ml insulin, penicillin and streptomycin) for 12 to 24 hours, the culture medium was exchanged with a serum-free culture medium (2) (DMEM, 10 mM nicotinamide, 1 mM ascorbic acid 2-phosphate, 10 ng/ml EGF, 10^−7 M dexamethasone, 0.5 μg/ml insulin, penicillin, streptomycin and 1% DMSO). After the culture for additional 10 days while the culture medium was exchanged every other day, Matrigel diluted to 500 μg/ml with the culture medium was placed on the cells. 48 hours after the addition of Matrigel, the culture medium was exchanged, and the culture was continued by using DMSO-free culture medium (2) for 4 days. 6 days after the addition of Matrigel, drugs shown in the following Tables 3 to 6 were added in a concentration shown in the same Tables thereto, respectively. 24 hours after the addition of the drug, the cells were recovered.
# (§3) After the proteins were separated with 10% SDS-PAGE, the intended protein was stained on the membrane by Western blot. The intensity of the band on the blot was digitized by a densitometer.
# (§4) The primary antibodies used were goat anti-CYP2B 1 antibody (diluted to 1/300), goat anti-CYP3A2 antibody (diluted to 1/300), goat anti-CYP2E1 antibody (diluted to 1/1000) and goat anti-CYP4A1 antibody (diluted to 1/1000) (all bought from Daiichi Kagaku Yakuhin). The secondary antibodies were HRP-conjugated anti-goat/sheep Ig (diluted to 1/5000) bought from DAKO. The chromogenic substrate was Super Signal West Dura (chemiluminescence) purchased from Pierce.
# (§5) Tables 3 to 6 show the relative activity of each enzyme as the induction capacity of each drug for the enzyme, wherein the activity of each enzyme in matured hepatocytes is defined as 100%. Pregnenolone was used in the form of a solution containing 0.5% ethanol, and clofibrate was used in the form of a solution containing 0.5% DMSO.
# [3] = tested on: CYP2B1; assay: CYP2B1 induction capacity in matured small hepatocyte-rich colonies (Western blot); type: cell-based, rat; conditions: 24 hours after addition, matured hepatocytes = 100%, 0 mM gave 30.8
# [4] = tested on: CYP3A2; assay: CYP3A2 induction capacity in matured small hepatocyte-rich colonies (Western blot); type: cell-based, rat; conditions: 24 hours, matured hepatocytes = 100%, control (0.5% ethanol) 94.9
# Method: as §1, §2, §3, §4, §5
smiles,measurement,setting,value
CCOC(=O)C(C)(C)Oc1ccc(Cl)cc1 [Clofibrate],CYP4A1 induction capacity (%),[1]; 0.1 mM in 0.5% DMSO,76.5%
same,CYP4A1 induction capacity (%),[1]; 0.25 mM in 0.5% DMSO,82.4%
same,CYP4A1 induction capacity (%),[1]; 0.5 mM in 0.5% DMSO,98.8%
same,CYP4A1 induction capacity (%),[1]; 0.75 mM in 0.5% DMSO,86.4%
CCO [Ethanol],CYP2E1 induction capacity (%),[2]; 250 mM,76.5%
same,CYP2E1 induction capacity (%),[2]; 500 mM,82.4%
same,CYP2E1 induction capacity (%),[2]; 750 mM,98.8%
same,CYP2E1 induction capacity (%),[2]; 1000 mM,86.4%
CCC1(c2ccccc2)C(=O)NC(=O)NC1=O [Phenobarbital],CYP2B1 induction capacity (%),[3]; 0.75 mM,37.4%
same,CYP2B1 induction capacity (%),[3]; 1.5 mM,47.9%
same,CYP2B1 induction capacity (%),[3]; 3.0 mM,46.9%
same,CYP2B1 induction capacity (%),[3]; 4.5 mM,55.0%
CC(=O)[C@H]1CC[C@H]2[C@@H]3CC=C4C[C@@H](O)CC[C@]4(C)[C@H]3CC[C@]12C [Pregnenolone],CYP3A2 induction capacity (%),[4]; 0.5 × 10^−3 mM in 0.5% ethanol,115.5%
same,CYP3A2 induction capacity (%),[4]; 1.0 × 10^−3 mM in 0.5% ethanol,141.0%
same,CYP3A2 induction capacity (%),[4]; 2.0 × 10^−3 mM in 0.5% ethanol,148.1%
same,CYP3A2 induction capacity (%),[4]; 5.0 × 10^−3 mM in 0.5% ethanol,153.2%
